The text below walks through data of ChEMBL document CHEMBL4619812, “Discovery of Potent and Orally Available Bicyclo[1.1.1]pentane-Derived Indoleamine-2,3-dioxygenase 1 (IDO1) Inhibitors” (ACS Med Chem Lett, 2020).

Structures are written as SMILES.

Data set [1] can be described thus: Unbound intrinsic clearance in rat hepatocytes. Format: ADME, cell-based, Hepatocyte.
The nature of data set [2]: Unbound clearance in rat. The following applies: in vivo. In kind it is ADME.
Data set [3] is described as follows: Unbound intrinsic clearance in human hepatocytes. In kind it is ADME, cell-based, Hepatocyte.
In data set [4] the target is Tryptophan 2,3-dioxygenase (Homo sapiens, UniProt P48775). Kind of data set: Inhibition of TDO in human SW48 cells using L-tryptophan as substrate incubated for 48 hrs by fluorescent microplate reader assay. In kind it is cell-based.
Sequence of Tryptophan 2,3-dioxygenase (P48775 whole entry): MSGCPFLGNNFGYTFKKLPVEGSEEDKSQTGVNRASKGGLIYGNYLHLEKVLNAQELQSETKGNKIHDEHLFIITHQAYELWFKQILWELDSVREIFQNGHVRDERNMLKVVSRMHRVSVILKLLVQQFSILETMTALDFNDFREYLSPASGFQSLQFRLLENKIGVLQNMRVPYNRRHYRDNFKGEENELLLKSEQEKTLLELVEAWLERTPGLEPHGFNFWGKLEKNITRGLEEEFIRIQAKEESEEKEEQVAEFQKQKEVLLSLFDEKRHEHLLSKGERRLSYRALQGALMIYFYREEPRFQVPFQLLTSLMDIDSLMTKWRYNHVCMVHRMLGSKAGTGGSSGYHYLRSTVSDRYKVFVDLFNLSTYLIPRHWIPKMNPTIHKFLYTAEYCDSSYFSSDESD
The nature of data set [5]: Clearance in rat. The following applies: in vivo. In kind it is ADME.
The nature of data set [6]: Elimination half life in rat. In kind it is ADME. Conditions: in vivo, read-out: beta t1/2 (converted).
Data set [7] can be described thus: Oral bioavailability in rat. Format: ADME, organism-based. The following applies: in vivo.
A short description of data set [8]: Apparent permeability in MDCK2 cells. Format: ADME, cell-based, Canis lupus familiaris, MDCK-II. Conditions: dog, MDCK.
Data set [9] is described as follows: Unbound intrinsic clearance in dog hepatocytes. Format: ADME, cell-based, Canis lupus familiaris, Hepatocyte.
Data set [10] can be described thus: Clearance in dog. In kind it is ADME, Canis lupus familiaris. Conditions: in vivo.
Data set [11] can be described thus: Unbound clearance in dog. Format: ADME, Canis lupus familiaris. Conditions: in vivo.
A short description of data set [12]: Elimination half life in dog. Format: ADME, Canis lupus familiaris. Conditions: in vivo, read-out: beta t1/2 (converted).
Data set [13] is described as follows: Oral bioavailability in dog. Format: ADME, organism-based, Canis lupus familiaris. The following applies: in vivo.
The target in data set [14] is MDR1 (ABCB1, P-glycoprotein) (Homo sapiens, UniProt P08183). Description: Substrate activity at human MDR1 expressed in pig LLC-PK1 cells assessed as efflux ratio of permeability across basolateral to apical over apical to basolateral membrane at 1 mM after 3 hrs by LC/MS/MS analysis. On the set-up: dose or concentration left out as unconfirmed.
Sequence of MDR1 (ABCB1, P-glycoprotein) (P08183 whole entry): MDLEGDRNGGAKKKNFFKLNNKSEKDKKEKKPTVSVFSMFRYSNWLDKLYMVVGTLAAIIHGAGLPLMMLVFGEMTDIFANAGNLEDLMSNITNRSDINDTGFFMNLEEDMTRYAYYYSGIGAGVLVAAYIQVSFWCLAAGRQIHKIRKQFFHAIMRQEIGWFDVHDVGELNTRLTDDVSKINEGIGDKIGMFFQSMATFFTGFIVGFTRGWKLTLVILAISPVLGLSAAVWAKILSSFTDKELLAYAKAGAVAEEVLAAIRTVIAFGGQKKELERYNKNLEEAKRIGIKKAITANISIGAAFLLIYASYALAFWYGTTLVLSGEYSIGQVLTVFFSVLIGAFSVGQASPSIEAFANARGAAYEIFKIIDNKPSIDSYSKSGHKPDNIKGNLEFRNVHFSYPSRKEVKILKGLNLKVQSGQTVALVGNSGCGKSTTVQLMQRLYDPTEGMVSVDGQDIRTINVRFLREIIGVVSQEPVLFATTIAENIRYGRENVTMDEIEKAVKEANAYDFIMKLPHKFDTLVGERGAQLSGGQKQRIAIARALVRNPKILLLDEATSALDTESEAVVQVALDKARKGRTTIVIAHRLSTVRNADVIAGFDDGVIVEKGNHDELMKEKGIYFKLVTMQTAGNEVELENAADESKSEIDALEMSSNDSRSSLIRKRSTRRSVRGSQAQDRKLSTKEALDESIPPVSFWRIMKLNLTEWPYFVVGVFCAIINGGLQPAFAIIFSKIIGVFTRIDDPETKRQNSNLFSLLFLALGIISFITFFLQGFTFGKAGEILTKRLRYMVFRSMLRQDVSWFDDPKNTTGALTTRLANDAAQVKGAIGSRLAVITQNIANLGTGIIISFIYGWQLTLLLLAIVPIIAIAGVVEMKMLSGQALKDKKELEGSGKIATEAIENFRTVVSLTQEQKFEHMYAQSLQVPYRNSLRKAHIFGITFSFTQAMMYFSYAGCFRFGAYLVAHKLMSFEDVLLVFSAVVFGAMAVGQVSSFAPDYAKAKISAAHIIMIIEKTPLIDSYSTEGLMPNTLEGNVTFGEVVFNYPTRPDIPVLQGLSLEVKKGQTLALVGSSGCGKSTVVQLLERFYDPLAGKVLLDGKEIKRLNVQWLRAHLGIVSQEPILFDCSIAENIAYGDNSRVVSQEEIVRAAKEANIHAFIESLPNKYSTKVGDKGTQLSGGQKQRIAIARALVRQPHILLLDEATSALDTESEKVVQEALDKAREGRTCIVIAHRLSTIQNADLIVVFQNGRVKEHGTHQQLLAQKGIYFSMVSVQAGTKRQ
In data set [15] the target is CYP450 (Homo sapiens, UniProt P04798+P05177+P05181+P08684+P10632+P10635+P11509+P11712+P13584+P20813+P20815+P20853+P24462+P24903+P33260+P33261+P51589+P78329+P98187+Q02928+Q08477+Q16678+Q16696+Q5TCH4+Q6VVX0+Q7Z449+Q8TAV3+Q96SQ9+Q9HB55). Description: Inhibition of CYP450 (unknown origin). Format: ADME, protein assay.
The target in data set [16] is T1, Nuclear receptor subfamily 1 group I member 2 (Homo sapiens, UniProt O75469).
T1 sequence (O75469 whole entry): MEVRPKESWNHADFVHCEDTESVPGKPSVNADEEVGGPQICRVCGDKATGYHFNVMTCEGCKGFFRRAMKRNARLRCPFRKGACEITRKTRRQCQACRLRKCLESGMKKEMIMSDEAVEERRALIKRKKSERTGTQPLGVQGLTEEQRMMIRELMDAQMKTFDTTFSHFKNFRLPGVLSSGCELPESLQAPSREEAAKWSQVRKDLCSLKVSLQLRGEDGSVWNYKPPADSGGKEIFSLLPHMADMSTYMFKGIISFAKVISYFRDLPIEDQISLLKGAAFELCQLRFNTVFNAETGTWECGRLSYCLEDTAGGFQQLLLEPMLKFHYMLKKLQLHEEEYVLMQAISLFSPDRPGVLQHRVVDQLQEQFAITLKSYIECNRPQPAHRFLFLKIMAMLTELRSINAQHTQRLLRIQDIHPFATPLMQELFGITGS
Description: Activation of PXR (unknown origin).

Data set [17] concerns the target CYP3A4 (Homo sapiens, UniProt P08684). Kind of data set: Inhibition of CYP3A4 (unknown origin) assessed as TDI shift ratio.
For data set [18], the target named is Indoleamine 2,3-dioxygenase 1 (Homo sapiens) (UniProt P14902). Conditions: Blood.
Sequence of Indoleamine 2,3-dioxygenase 1 (Homo sapiens) (P14902 whole entry, looked up): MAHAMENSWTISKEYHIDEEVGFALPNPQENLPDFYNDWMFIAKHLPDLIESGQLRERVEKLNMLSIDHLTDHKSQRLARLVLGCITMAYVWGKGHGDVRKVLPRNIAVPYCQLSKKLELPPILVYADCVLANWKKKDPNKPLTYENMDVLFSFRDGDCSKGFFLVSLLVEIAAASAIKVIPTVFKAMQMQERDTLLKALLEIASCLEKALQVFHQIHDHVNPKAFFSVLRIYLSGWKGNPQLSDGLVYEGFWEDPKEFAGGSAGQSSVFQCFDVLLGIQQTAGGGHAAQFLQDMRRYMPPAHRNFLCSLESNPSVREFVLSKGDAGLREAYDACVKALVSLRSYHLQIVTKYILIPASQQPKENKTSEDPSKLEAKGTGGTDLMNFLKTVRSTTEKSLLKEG
Description: Inhibition of IDO1 in human whole blood stimulated with IFNgamma/LPS using L-tryptophan/kynurenine as substrate incubated for 15 mins prior to IFNgamma/LPS stimulation and further incubated for 18 hrs followed by isotope labeled L-tryptophan/kynurenine addition on day 2 by LC/MS-MS analysis

Sequence of CYP3A4 (P08684 whole entry): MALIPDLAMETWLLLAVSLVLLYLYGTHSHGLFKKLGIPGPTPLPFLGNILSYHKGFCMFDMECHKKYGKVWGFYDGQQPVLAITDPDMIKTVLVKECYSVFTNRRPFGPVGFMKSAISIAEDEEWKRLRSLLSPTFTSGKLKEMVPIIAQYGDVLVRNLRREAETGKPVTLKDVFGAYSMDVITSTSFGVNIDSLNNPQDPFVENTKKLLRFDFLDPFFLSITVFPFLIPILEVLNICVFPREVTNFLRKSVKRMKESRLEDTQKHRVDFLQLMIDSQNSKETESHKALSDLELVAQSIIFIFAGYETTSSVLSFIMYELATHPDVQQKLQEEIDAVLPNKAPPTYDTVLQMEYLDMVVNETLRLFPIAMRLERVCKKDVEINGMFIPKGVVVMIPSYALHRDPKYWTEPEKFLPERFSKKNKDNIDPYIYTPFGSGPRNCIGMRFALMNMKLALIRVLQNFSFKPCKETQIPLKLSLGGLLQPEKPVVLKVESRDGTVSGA

For the molecule `O=C(Nc1ccc(C2(C(=O)Nc3ccc(F)cc3)CCC2)cc1)c1cccc(Cl)c1`, the CL free was 1935 mL/min/kg in data set [1] and 4371 mL/min/kg in data set [2].

`C[C@H](C(=O)Nc1ccc(F)cc1)C12CC(Nc3ncnc4ccccc34)(C1)C2`: the CL free in data set [3] was 1544 mL/min/kg; in [1], 1494 mL/min/kg.

In the case of `C[C@H](C(=O)Nc1ccc(F)cc1)C12CC(Nc3ncnc4ccc(F)cc34)(C1)C2`, the CL free in [3] came to 723 mL/min/kg; in [1] it was 549 mL/min/kg.

Turning to `C[C@H](C(=O)Nc1ccc(Cl)nc1)C12CC(NC(=O)c3cccc(Cl)c3)(C1)C2`, the results for the CL free in data set [3] and in [1] were 34 mL/min/kg and 133 mL/min/kg, respectively.

As to `CC(C)(C(=O)Nc1ccc(F)cc1)C12CC(NC(=O)c3cccc(Cl)c3)(C1)C2`, the CL free is 51 mL/min/kg in data set [3] and 197 mL/min/kg in [1].

As for `C[C@H](C(=O)Nc1ccc(F)cc1)C12CC(NC(=O)c3ccc(F)c(Cl)c3)(C1)C2`, the figures for the CL free in [3] and in data set [1] were 56 mL/min/kg and 295 mL/min/kg, respectively.

For `C[C@H](C(=O)Nc1ccc(F)cc1)C12CC(NC(=O)c3cccc(Cl)c3F)(C1)C2`, the results for the CL free in data set [3] and in [1] were 591 mL/min/kg and 765 mL/min/kg, respectively.

As for `C[C@H](C(=O)Nc1ccc(F)cc1)C12CC(NC(=O)c3cc(F)cc(Cl)c3)(C1)C2`, the CL free in data set [3] stood at 56 mL/min/kg; in data set [1] it was 441 mL/min/kg.

Take `C[C@H](C(=O)Nc1ccc(F)cc1)C12CC(NC(=O)OC3CCCC3)(C1)C2`: the values for the CL free in [3] and in [1] were 2357 mL/min/kg and 4457 mL/min/kg, respectively.

`C[C@H](C(=O)Nc1ccc(F)cc1)C12CC(NC(=O)c3cccc(Cl)n3)(C1)C2`: the figures for the CL free in data set [3] and in [1] were 82 mL/min/kg and 644 mL/min/kg, respectively.

In the case of `C[C@H](C(=O)Nc1ccc(F)cc1)C12CC(NC(=O)c3cccc(Cl)c3)(C1)C2`, in [4], the concentration for half-maximal inhibition (IC50) was > 10 µM. The CL free in data set [3] is 48 mL/min/kg; in data set [1] it was 247 to 248 mL/min/kg; in [2], 194 mL/min/kg. This molecule also gave a clearance in data set [5] of 5 mL/min/kg. In data set [6], the half-life was 3.7 h. Moreover, the bioavailability in [7] amounted to 110%. Also, the Papp in [8] turned out to be 32 ×10⁻⁶ cm/s.

In the case of `C[C@H](C(=O)Nc1ccc(Cl)cc1)C12CC(NC(=O)c3cccc(Cl)c3)(C1)C2`, the figures for the CL free in data set [3] and in data set [1] were 47 mL/min/kg and 150 mL/min/kg, respectively.

With `CC(C)OC(=O)NC12CC([C@H](C)C(=O)Nc3ccc(F)cc3)(C1)C2`, the CL free was found to be 369 mL/min/kg in [3] and 2925 mL/min/kg in data set [1].

Consider `C[C@H](C(=O)Nc1ccc(F)cc1)C12CC(NC(=O)c3ccc(F)c(F)c3)(C1)C2`, for which the IC50 in [4] was > 10 µM; in data set [15], > 50 µM. Moreover, the CL free in [3] came out at 52 mL/min/kg; in data set [1] it was 195 mL/min/kg; in [9], 121 mL/min/kg; in [2], 37 mL/min/kg; in [11], 22 mL/min/kg. The clearance in [5] came to 2 mL/min/kg; in data set [10], 1.1 mL/min/kg. For the same molecule, the half-life in data set [6] is 11 h; in data set [12], 36 h. In addition, the figures for the bioavailability in data set [7] and in data set [13] were 83% and 79%, respectively. For the same molecule, in [14], the efflux ratio at 3 h amounted to 1.3. In addition, in [8], the Papp came to 29 ×10⁻⁶ cm/s. Further, the EC50 in data set [16] is > 30 µM. Also, in data set [17], the IC50 shift is 1. Further, in data set [18], the 90% effect level (IC90) was put at 0.912 µM.

A word on the IC50: it is the concentration that gives 50% inhibition. Usually clearance stands for the rate of elimination divided by the concentration. What is called Papp is a coefficient for how fast a substance crosses the barrier. In general, efflux ratio refers to a quotient of directional permeabilities that is used to spot active efflux. In general, EC50 refers to the midpoint of the concentration-response curve. Broadly, the IC90 is the concentration needed for an effect of 90%.
